Measurements published in paper PMC7558282, “The Anticancer Activity for the Bumetanide-Based Analogs via Targeting the Tumor-Associated Membrane-Bound Human Carbonic Anhydrase-IX Enzyme” (Pharmaceuticals, 2020).

How the values were obtained:
[1] = test system: SCaBER bladder squamous cell carcinoma cells; experiment: MTT cell proliferation assay, SCaBER; format: cell-based; settings: Homo sapiens, 48 h, ±SEM
Experimental: Cells were cultured in 96-well plate, at cell density of 1.2–1.8 × 10^4 cells/well, using Dulbecco’s Modified Eagle Medium (Invitrogen^TM, Carlsbad, CA, USA) supplemented with 10% (w/v) fetal bovine serum (Hyclone^TM, Marlborough, MA, USA), 10 ug/mL of insulin (Sigma-Aldrich^TM, St. Louis, MO, USA), and 1% (w/v) penicillin-streptomycin (Sigma-Aldrich^TM, St. Louis, MO, USA). Following 24h-incubation period under 5% CO2 at 37 °C, cells were treated with compounds’ serial concentrations (0.1 µM–100 µM) in DMSO, where the DMSO final concentration in the culture medium never exceeded 0.2% (v/v). Subsequently, the treated microplates were incubated for 48 h at 5% CO2/37 °C prior to examination under the inverted microscope and proceeding for the MTT assay. The culture medium was discarded and 100 µL of complete medium comprising 5 mg/mL MTT dye were dispensed within every well, then plates were reincubated for 2 h at 5% CO2/37 °C. […] Color intensity within each well was measured spectrophotometrically using the ROBONIK-P2000® ELISA microplate reader (Bio-Tek^TM, Winooski, VT, USA) at 450 nm while subtracting the background absorbance of multi well plates at 690 nm. The experiment was conducted in triplicates and IC50 values were estimated through linear regression between the logarithm-transformed compound concentrations and corresponding % cell viability = (mean absorbance in test wells/mean absorbance in control wells) ∗ 100, having the response variable slope (four parameters) for all samples.

hCA-II = hCA-II (Homo sapiens, UniProt P00918); experiment: colorimetric CA-inhibition assay based on CA-esterase activity, hCA-II; settings: hCA-II IC50, three replicate experiments; N/D = non-detected IC50 within the range of the tested concentrations
Experimental: Based on the kit manufacturer’s protocol, the candidate inhibitors were dissolved in DMSO at 10 × highest final test concentration and specific aliquots of such working dilutions were incubated with the target hCA isozyme for 10 min at room temperature prior to permit the formation of the enzyme-inhibitor complex. Triplicate experiments were performed for each candidate inhibitor concentration. Parallel wells of solvent and enzyme controls were prepared to test the solvent impact upon the activity of the target enzyme. […] Following incubation, the CA-substrate was added and changes in absorbance (at 405 nm) were monitored for 60 min at room temperature within the kinetic mode. The negative enzyme control wells (without added compounds) were arbitrarily set as 100% enzyme activity. […] Absorbance readings from background wells were subtracted from the compound assay wells in order to account for background hydrolysis activity caused by the buffer solution [44, 45].

IC50 [1]: 8.8 ± 1.9 µM
IC50 (hCA-II): 0.32 µM
Structure (SMILES): CCCCNc1cc(-c2n[nH]c(=S)n2-c2ccc(Br)cc2)cc(S(N)(=O)=O)c1Oc1ccccc1 [Compound 9c]
